This assay concerns mice submitted to DSS-induced colitis. Put plainly: DSS-induced colitis model in mice. The assay is classed as in vivo, mouse (C57BL/6JRj). The note with it: for protection against DSS-induced colitis (body weight loss, DAI, colon length, histological score): FIG. 2, oral administration, n=16-20 mice per group; for protection from colitis: intraperitoneal injection, FIG. 3, n=10 mice per group; for colonic expression of pro-inflammatory cytokines such as IL-1 or IL-17: oral treatment, measured by Nanostring technology, data not shown; for colon length / histological score: day twelve. How it is done: C57BL/6JRj from Janvier lab, 7 weeks old, were housed in our specific pathogen free animal facility at IERP (INRA, Jouy en Josas, France). Five to ten female mice per group were used in all experiment, were maintained in a temperature controlled (23° C.) facility with a strict 12 h light/dark cycles and were given free access to food and water. After one acclimation week, we changed water with DSS 2% (MP Biomedical) during 7 days (day 0 to day 7), and a
recovery period was practiced until day 12 (during 5 days). Body weight loss and DAI (disease activity index) were performed daily. After 12 days the samples were harvested.
Colon distal part (cut in three parts) was harvested at day 12 after DSS model and put directly in PFA (Rothi®—Histofix 4%) during 48 h and transferred in ethanol 70% until the standard pre-fixation automat and paraffin embedded. HES coloration was practiced on 5Im cut.
Data were analyzed using Prism version 7 (Graphpad Software, San Diego, USA). The non-parametric Mann Withney test or the parametric one-way ANOVA tests with multiple Bonferroni's comparison tests were performed. Values are expressed as mean±SEM. Statistical significance was defined at a p-value ****<0.0001, ***<0.001, **<0.01, *<0.05.

The mark [1] stands for this setting: oral, each day, 8 mg of KYNA / 6 mg of XANA per mouse.
Setting [2] is: oral, each day, 8 mg of KYNA / 6 mg of XANA per mouse, measured daily, DSS 2%.

SMILES strings stand for the structures.

As to `O=C(O)c1cc(=O)c2ccccc2[nH]1` [KYNA, kynurenic acid, reference compound], the “protection against DSS-induced colitis (body weight loss, DAI, colon length, histological score)” value was “protect against DSS-induced colitis”; the protection from colitis result is “induces protection similar to that observed when these metabolites are given orally”; the “colonic expression of pro-inflammatory cytokines such as IL-1 or IL-17” value was “reduced”. Under setting [1], the colon length entry is “longer” and the histological score entry was “lower”. Under setting [2], the “activity index of colitis (DAI)” value is on record as “anti-inflammatory effect” and the weight loss entry is on record as “anti-inflammatory effect”.
As to `O=C(O)c1cc(O)c2cccc(O)c2n1` [XANA, xanthurenic acid], the “protection against DSS-induced colitis (body weight loss, DAI, colon length, histological score)” value is on record as “protect against DSS-induced colitis”; the protection from colitis result is given as “induces protection similar to that observed when these metabolites are given orally”; the “colonic expression of pro-inflammatory cytokines such as IL-1 or IL-17” value is on record as “reduced”. Besides, under setting [1], the colon length entry is on record as “longer” and the histological score result was “lower”. In addition, under setting [2], the weight loss entry is “anti-inflammatory effect”.

The values are drawn from patent US20240408183A1, “KYNURENINE AMINOTRANSFERASE AND PRODUCTS THEREOF FOR THE TREATMENT OF INFLAMMATORY BOWEL DISEASES” (Institut National De Recherche Pour L'Agriculture, …, priority 2021, published 2024).
